Experimental data reported in patent publication US12187624B2, “Method of acylating amino acids and uses of N-acyl amino acid products” (NewSouth Innovations Pty Limited, priority 2019, dated 2025).
Values joined by “and” are separate entries in the source; they are usually repeats but may differ in a detail not shown here. Identical values can stand only once.

Columns and labels:
[1] = Critical micelle concentration (CMC) from conductivity versus surfactant concentration; format: physicochemical
Protocol: The CMC of N-octanoyl-cys prepared by this method was determined to be 0.1M. The CMC was determined using a Bench-Top water quality meter, SPER SCIENTIFIC Instrument model 860033 to measure the conductivity and pH of the surfactant solution. The CMC value of the surfactant was measured by plotting conductivity values versus different surfactant concentrations at pH 9 by adding NaOH solution (0.1 mol L^−1) and 25.0° C. The CMC was obtained as the point of sharp transition in the slope of conductivity with increasing surfactant concentration (data not shown).
The CMC of the N-octanoyl-cys surfactant prepared by Exemplary method 1, in Na^+ form at pH 8, was determined (as reported above for Comparative method 1 above from measurements of the electrical conductivity with surfactant concentration) to be about 0.09 mol/L, see FIG. 3.
The same protocols as described above were used to determine the CMC and melting point of the twice-recrystallised N-octyl-cysteine surfactant. The values measured were 0.1M and 145° C., respectively. These values are consistent with literature values.

[2] = cited from earlier work
[3] = Ion flotation of Cd solution in air bubble column, ICP-MS analysis; details: Csurfactant = 0.01M
Protocol: (§1) In a model experiment, 0.01M of the N-octanoyl-cys surfactant was dissolved (with heating around 65° C. while stirring) in a 5 mg L^−1 solution (i.e. 5 ppm) of Cd containing 0.1 M NaOH and finally made up to 100 ml using Milli-Q water, with the pH of around 8.
(§2) The solution was then poured into a column (with 30 cm height and 3 cm diameter) while a 2 L/min flow of air gas was passed through it with air pump (Hiblow HP40, Philippines). Two samples were taken after each of 30 and 60 minutes from around 2 cm top of the sinter, and the Cd concentrations of each sample was determined by ICP-MS analysis. The upper-outlet foam was also collected in a waste container using an outlet tube.
The same procedure was used with the N-octyl-cys surfactant in the flotation experiment, but where the pH of the solution was increased to 12, to enable this surfactant to successfully produce a foam (this difference is discussed later).

[4] = Ion flotation of calcium solution in air bubble column, ICP-MS analysis
Protocol: as §1, §2
In the second series of ion flotation experiments, N-octanoyl-cys surfactant (obtained by Exemplary method 1) was used for removing calcium ions using air in the ion flotation process.

[5] = Foaming test of surfactant solutions at different pH; format: physicochemical; details: Csurfactant = 0.01M; solutions at pH 3, 6, 9, 12 (FIG. 6)
Excerpt: FIG. 6 is a pair of photos from the foaming test described in Example 2; the first photo (upper) is a photo of N-octanoyl cysteine solutions at: pH 3 (far left), pH 6 (middle left), pH 9 (middle right) and pH 12 (far right) and the second photo (lower) is a photo of N-octyl cysteine solutions at: pH 3 (far left), pH 6 (middle left), pH 9 (middle right) and pH 12 (far right). (Csurfactant=0.01M and the pH adjusted with […]).

[6] = pH 12, Ccalcium = 5 mg L^−1, Csurfactant = 0.01M, air bubbles

Row | Compound | CMC ([1]; twice-recrystallised surfactant, same protocols as for N-octanoyl-cys) | pKa of the amine group (protonation) [2] | Adsorption (%) After 60 min ([3]; operating pH 12, 5 mg L^−1 Cd) | Adsorption (%) After 60 min ([4]; pH 12, Ccalcium = 5 mg L^−1, Csurfactant = 0.01M) | C(mg L^−1) (RSD %) After 30 min [4, 6] | C(mg L^−1) (RSD %) After 60 min [4, 6] | pH at which the surfactant starts foaming (foaming point) [5] | pKa of the amide group (protonation) [2] | Adsorption (%) After 60 min ([3]; operating pH 8, 5 mg L^−1 Cd, listed as N-octanoyl-cys (Comparative method 1)) | Adsorption (%) After 60 min ([3]; operating pH 8, 5 mg L^−1 Cd, listed as N-octanoyl-cys (Exemplary method 1)) | Adsorption (%) After 60 min ([4]; pH 8, Ccalcium = 5 mg L^−1, Csurfactant = 0.01M) | C(mg L^−1) (RSD %) After 30 min ([4]; pH 8, Ccalcium = 5 mg L^−1, Csurfactant = 0.01M, air bubbles) | CMC ([1]; N-octanoyl-cys prepared by Comparative method 1, pH 9 (NaOH), 25.0° C.) | CMC ([1]; prepared by Exemplary method 1, in Na+ form at pH 8)
1 | N-octyl-cysteine [reference compound] | 0.1 M |  |  |  |  |  |  |  |  |  |  |  |  | 
2 | CCCCCCCCN[C@@H](CS)C(=O)O [N-octyl-cys, N-octyl-cysteine] |  | about 10.7 | 14.2% | 14% and 14.6% | 4.89 (0.87) mg L^−1 | 4.27 (3.31) mg L^−1 | > 12 |  |  |  |  |  |  | 
3 | CCCCCCCC(=O)N[C@@H](CS)C(=O)O [N-octanoyl-cys, N-octanoyl-cysteine] |  |  | 12.3% |  |  |  | ~6 | around −0.5 | 99.2% | 99.8% | 97% and 97.3% | 0.72 (42.02) mg L^−1 | 0.1 M | about 0.09 mol/L
